Data reported in paper PMC4775916 (Antimicrobial Agents and Chemotherapy, 2016).
Values joined by “and” are separate entries in the source; they are usually repeats but may differ in a detail not shown here. Equal entries are not always repeated. Where two headings read alike, the source gives them in different places.

Assays:
VIM-38 [1] = biological target: T1, VIM-38 (Pseudomonas aeruginosa, UniProt A0A0F7KYQ8, A128K/A265V/E202A/H201L/K257T/S205R); assay: Steady-state kinetics of β-lactam substrate hydrolysis; assay type: biochemical; conditions: 50 mM HEPES pH 7.2, apparent for ampicillin and ceftazidime; for Km: read-out: Mean Km ± SD VIM-38
T1 construct: The N- and C- terminal residues of the mature enzymes are labelled 26; His6 with HRV3C cleavage site (pET-28a) (N, cleaved yes); made in house; host or cells: E. coli BL21(DE3)
Method: (§1) The hydrolysis of a representative panel of β-lactam substrates was monitored at their respective absorbance wavelengths. The wavelengths and extinction coefficients used were previously described ([34]). The assays were carried out using 50 mM HEPES buffer (pH 7.2) supplemented with 1 μg/ml bovine serum albumin (BSA), 1 μM ZnSO4, and 0.01% Triton X-100. In the case of VIM-1, C-terminally His6-tagged VIM-1 was used for kinetic analyses. Note that no differences were observed between the activities of untagged VIM-1 and C-terminally His6-tagged VIM-1 for the selected antibiotics (data not shown). The initial rates were obtained from the changes in absorbance at various substrate concentrations. Steady-state kinetic parameters (Km and kcat) were determined by fitting the initial velocity data to the Michaelis-Menten equation using GraphPad Prism 5.01 software (see Table S4 in the supplemental material).

VIM-5 [2] = assay: as above; assay type: biochemical; conditions: VIM-5 versus VIM-1
Method: as §1

VIM-38 [3] = assay: as above; assay type: biochemical; conditions: VIM-38 versus VIM-1
Method: as §1

VIM-5 [4] = biological target: T2, VIM-5 (Pseudomonas aeruginosa, UniProt A0A0F7KYQ8, A128K/E202A/H201L/K257T/S205R); assay: as above; assay type: biochemical; conditions: 50 mM HEPES pH 7.2, apparent for ampicillin and ceftazidime; for Km: read-out: Mean Km ± SD VIM-5
T2 construct: His6 with HRV3C cleavage site (pET-28a) (N, cleaved yes); made in house; host or cells: E. coli BL21(DE3)
Method: as §1

VIM-1 [5] = biological target: T3, VIM-1 (Pseudomonas aeruginosa, UniProt A0A0F7KYQ8); conditions: previous studies ref Franceschini et al. (4), cited from earlier work
T3 construct: The N- and C- terminal residues of the mature enzymes are labelled 26; made in house

VIM-2 [6] = assay type: biochemical; conditions: VIM-2 versus VIM-1
Method: as §1

VIM-2 [7] = test system: VIM-2; design: method as in Poirel et al. (5); conditions: previous studies ref Poirel et al. (5), cited from earlier work
VIM-5 [8] = test system: VIM-5; design: method as in Garcar et al. (6); conditions: previous studies ref Garcar et al. (6), cited from earlier work
VIM-1 [9] = biological target: T3, VIM-1; assay: Steady-state kinetics of β-lactam substrate hydrolysis; assay type: biochemical; conditions: C-terminally His6-tagged VIM-1; 50 mM HEPES pH 7.2; apparent for ampicillin and ceftazidime
Method: as §1

VIM-2 [10] = biological target: T4, VIM-2 (Escherichia coli, UniProt Q5U7L7); assay: Nitrocefin hydrolysis kinetics before thermal denaturation and after refolding; assay type: biochemical
T4 construct: His6 (N, cleaved yes); made in house
Method: (§2) Circular dichroism (CD) analyses were carried out using a Chirascan CD spectrophotometer (Applied Photophysics) equipped with a Peltier temperature-controlled cell holder. CD measurements were collected in the range of 185 to 260 nm; spectra were baseline corrected and smoothed using a Savitzky-Golay filter. Data were normalized at 207 nm to account for differences in protein concentrations ([38]), and the estimation of secondary structure content was performed with Dichro Web ([39]) using the CONTIN Analysis Programme (reference set 6) ([40]). Melting temperatures (Tm) of the recombinant enzymes were determined by monitoring temperature-induced changes in the CD signal at 222 nm. The temperature was increased by 1°C per min, and the CD signal was recorded at temperatures ranging from 25°C to 92°C. The samples were then cooled from 92°C to 25°C at the same rate, and a CD spectrum of the refolded proteins was determined. The activity of the enzymes was recorded before thermal denaturation and after refolding by monitoring nitrocefin hydrolysis. The thermal denaturation data were fitted to a Boltzmann sigmoidal curve by using GraphPad Prism 5.0 software. CD spectra and thermal denaturation curves are shown in Fig. 2 and in Tables S2 and S3 in the supplemental material.

VIM-4 [11] = biological target: T5, VIM-4 (Pseudomonas aeruginosa, UniProt A0A0F7KYQ8, S205R); assay: as above; assay type: biochemical
T5 construct: His6 (N, cleaved yes); made in house
Method: as §2

VIM-38 [12] = biological target: T1, VIM-38; assay: as above; assay type: biochemical
Method: as §2

VIM-1 [13] = biological target: T3, VIM-1; assay: as above; assay type: biochemical
Method: as §2

VIM-5 [14] = biological target: T2, VIM-5; assay: as above; assay type: biochemical
Method: as §2

VIM-2 [15] = biological target: T4, VIM-2; assay: 1H CPMG NMR binding assay (thiomandelic acid reporter ligand displacement); conditions: 50 μM thiomandelic acid, 50 μM enzyme, 50 mM Tris-D11 pH 7.5, read-out: KD app VIM-2
Method: (§3) Binding assays were carried out using ^1H-edited Carr-Purcell-Meiboom-Gill (CPMG) nuclear magnetic resonance (NMR) analyses. Spectra were recorded by using a Bruker AVIII 600-MHz NMR spectrometer equipped with a BB-F/^1H Prodigy N2 cryoprobe using 3-mm Match NMR tubes (Cortectnet). The PROJECT-CPMG sequence (90°x-[τ-180°y-τ-90°y-τ-180°y-τ]n-acq) was applied, and water suppression was achieved by presaturation. […] Assays were conducted using 50 mM Tris-D11 (pH 7.5) supplemented with 0.02% NaN3 in 90% H2O and 10% D2O. Equilibrium dissociation constant (KD) measurements for the reporter ligand (50 μM thiomandelic acid) and inhibitors (0 to 300 μM) were carried out as previously reported ([43]). Data were processed with Bruker 3.1 software and fitted by using Origin Pro8.5.1 (see Table S5 in the supplemental material).
(§4) *Apparent kinetic parameters were reported for ampicillin and ceftazidime hydrolysis. #C-terminal His -tagged […]
(§5) VIM-1 was used for kinetic analyses.
(§6) Table S5. Apparent KD curve fitting for the binding of inhibitors (1) and (2) to VIM-2 and […]
(§7) Apparent KD fitting as monitored by 1H CPMG NMR spectra of the signal recovery of thiomandelic acid (50 μM) upon addition of increasing concentrations of 1 and 2 with a final enzyme concentration of 50 μM VIM-2/VIM-5. Assays were conducted in 50 mM Tris-D11 (pH […]
(§8) (also on this page, place not known: K D Tris-D 11 His6-tagged V0 (µM/ s) NN OHO % thiomandelic acid displacement µM % thiomandelic acid displacement) […]

VIM-5 [16] = biological target: T2, VIM-5; assay: as above
Method: as §3, §4, §5, §6, §7, §8

VIM-2 [17] = assay: Inhibition of enzyme-mediated nitrocefin hydrolysis; assay type: biochemical; conditions: VIM-2 versus VIM-5 and VIM-38
Method: (§9) Inhibitors were prepared as reported previously ([36], [41]). Enzyme-mediated hydrolysis of nitrocefin was monitored by determining the changes in absorbance at 495 nm, as previously described ([36], [37]). Residual activities were first determined at a 100 μM inhibitor concentration. […] The residual activities were obtained at increasing inhibitor concentrations (0.2 to 2,000 μM); the data were analyzed using GraphPad Prism 5.01 software.

VIM-2 [18] = biological target: T4, VIM-2; assay: as above; assay type: biochemical; conditions: read-out: IC50 VIM-2 (Y224, R228)
Method: as §9

VIM-4 [19] = biological target: T5, VIM-4; assay: as above; assay type: biochemical; conditions: for IC50: read-out: IC50 VIM-4 (H224, R228)
Method: as §9

VIM-38 [20] = biological target: T1, VIM-38; assay: as above; assay type: biochemical
Method: as §9

VIM-5 [21] = assay: as above; assay type: biochemical; conditions: VIM-5 versus VIM-1
Method: as §9

VIM-1 [22] = biological target: T3, VIM-1; assay: as above; assay type: biochemical; conditions: read-out: IC50 VIM-1 (H224, S228)
Method: as §9

VIM-38 [23] = assay: as above; assay type: biochemical; conditions: VIM-38 versus VIM-1
Method: as §9

VIM-5 [24] = biological target: T2, VIM-5; assay: as above; assay type: biochemical
Method: as §9
For IC50 VIM-4 (H224, R228) in this document: 10 min preincubation.

CO[C@@]1(NC(=O)Cc2cccs2)C(=O)N2C(C(=O)O)=C(COC(N)=O)CS[C@@H]21 [Cefoxitin]
kcat VIM-38 (VIM-38 [1]): 340 s⁻¹ | Km (VIM-38 [1]): 230 ± 60 µM | fold increase in kcat/Km of VIM-5 over VIM-1 (VIM-5 [2]): > 7 fold | fold-higher kcat of VIM-5 than VIM-1 (VIM-5 [2]): > 10 fold | fold increase in kcat/Km of VIM-38 over VIM-1 (VIM-38 [3]): > 7 fold | fold-higher kcat of VIM-38 than VIM-1 (VIM-38 [3]): > 10 fold | kcat VIM-5 (VIM-5 [4]): 460 s⁻¹ | Km (VIM-5 [4]): 320 ± 60 µM

C[C@@H](O)[C@H]1C(=O)N2C(C(=O)O)=C(SCCN=CN)C[C@H]12 [Imipenem]
kcat VIM-1 (previous study) (VIM-1 [5]): 2 s⁻¹ | Km (VIM-1 [5]; read-out: Km VIM-1 (previous study)): 1.5 µM | fold increase in kcat/Km of VIM-2 compared to VIM-1 (VIM-2 [6]): 6 fold | kcat VIM-2 (previous study) (VIM-2 [7]): 9.9 s⁻¹ | Km (VIM-2 [7]; read-out: Km VIM-2 (previous study)): 10 µM | kcat VIM-5 (previous study) (VIM-5 [8]): 3.5 s⁻¹ | Km (VIM-5 [8]; read-out: Km VIM-5 (previous study)): 12 µM | kcat VIM-38 (VIM-38 [1]): 90 s⁻¹ | Km (VIM-38 [1]): 150 ± 20 µM | kcat VIM-1 (VIM-1 [9]): 30 s⁻¹ | kcat VIM-5 (VIM-5 [4]): 58 s⁻¹ and 60 s⁻¹ | Km (VIM-5 [4]): 58 µM and 60 µM

O=C(Cc1cccs1)N[C@@H]1C(=O)N2C(C(=O)O)=C(/C=C/c3ccc([N+](=O)[O-])cc3[N+](=O)[O-])CS[C@H]12 [Nitrocefin]
kcat VIM-38 (VIM-38 [1]): 720 s⁻¹ | Km (VIM-38 [1]): 70 ± 10 µM | kcat VIM-5 (VIM-5 [4]): 420 s⁻¹ | Km (VIM-5 [4]): 50 ± 5 µM | kcat VIM-2 after refolding (VIM-2 [10]; after refolding): 290 s⁻¹ | Km (VIM-2 [10]; pre-heating): 13 ± 1 µM | kcat VIM-2 pre-heating (VIM-2 [10]; pre-heating): 290 s⁻¹ | kcat VIM-4 after refolding (VIM-4 [11]; after refolding): 180 s⁻¹ | Km (VIM-4 [11]; after refolding, read-out: Km VIM-4 after refolding): 30 ± 2 µM | kcat VIM-4 pre-heating (VIM-4 [11]; pre-heating): 340 s⁻¹ | Km (VIM-4 [11]; pre-heating, read-out: Km VIM-4 pre-heating): 45 ± 1 µM | kcat VIM-38 pre-heating (VIM-38 [12]; pre-heating): 690 s⁻¹ | Km (VIM-38 [12]; read-out: Km VIM-38 after refolding, after refolding): 40 ± 4 µM | Km (VIM-38 [12]; read-out: Km VIM-38 pre-heating, pre-heating): 55 ± 6 µM | kcat VIM-1 after refolding (VIM-1 [13]; after refolding): 12 s⁻¹ | kcat VIM-1 pre-heating (VIM-1 [13]; pre-heating): 25 s⁻¹ | kcat VIM-5 after refolding (VIM-5 [14]; after refolding): 100 s⁻¹ | Km (VIM-5 [14]; after refolding, read-out: Km VIM-5 after refolding): 11 ± 1 µM | kcat VIM-5 pre-heating (VIM-5 [14]; pre-heating): 210 s⁻¹ | Km (VIM-5 [14]; pre-heating, read-out: Km VIM-5 pre-heating): 45 ± 3 µM

O=C(N[C@H](Cc1c[nH]c2ccccc12)C(=O)O)c1nc(Cl)c2ccccc2c1O [compound 1]
Kd (VIM-2 [15]): 180 µM | Kd (VIM-5 [16]): 140 µM | fold-higher IC50 of VIM-2 than VIM-5 and VIM-38 (VIM-2 [17]): > 40 fold | IC50 (VIM-2 [18]): 90 µM | fold-higher IC50 of VIM-4 than VIM-5 and VIM-38 (VIM-4 [19]; VIM-4 versus VIM-5 and VIM-38): > 40 fold | IC50 (VIM-4 [19]): 200 µM | IC50 (VIM-38 [20]): 2 µM | better inhibitor of VIM-5 than VIM-1 (IC50 ratio) (VIM-5 [21]): > 500 fold | IC50 (VIM-1 [22]): > 1000 µM | better inhibitor of VIM-38 than VIM-1 (IC50 ratio) (VIM-38 [23]): > 500 fold | IC50 (VIM-5 [24]): 2 µM

O=C(N[C@@H](Cc1c[nH]c2ccccc12)C(=O)O)c1nc(Cl)c2ccccc2c1O [compound 2]
Kd (VIM-2 [15]): 330 µM | Kd (VIM-5 [16]): 180 µM | IC50 (VIM-2 [18]): 300 µM | IC50 (VIM-4 [19]): 600 µM | IC50 (VIM-38 [20]): 80 µM | IC50 (VIM-1 [22]): 60 µM | IC50 (VIM-5 [24]): 50 µM
